In ChEMBL document CHEMBL1201862, “PubChem BioAssay data set” (2004):
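Growth conditions: 96-well plates. Treatment: test compound, 48 hours, 5 concentrations. Analysis: linear interpolation between bracketing concentrations; unreached endpoints set to highest concentration. GI50 = concentration required for 50% inhibition of growth.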 Calls of active or inactive are those of the source. Rule as the data show it: active = GI50 up to about 1.1 µM and inactive = higher.

Assays:
Test in all cases: NCI anticancer screen, dose series, 48 h
HL-60 = system: HL-60
OVCAR-4 = system: OVCAR-4
SK-MEL-2 = system: SK-MEL-2
SK-MEL-5 = system: SK-MEL-5
SN12C = system: SN12C
LOX IMVI = system: LOX IMVI
NCI-H23 = system: NCI-H23
COLO 205 = system: COLO 205
HCC 2998 = system: HCC 2998
UO-31 = system: UO-31
OVCAR-5 = system: OVCAR-5
OVCAR-3 = system: OVCAR-3
Hs-578T = system: Hs-578T
EKVX = system: EKVX
HOP-92 = system: HOP-92
Malme-3M = system: Malme-3M
A498 = system: A498
UACC-257 = system: UACC-257
T47D = system: T47D
OVCAR-8 = system: OVCAR-8
PC-3 = system: PC-3
SK-MEL-28 = system: SK-MEL-28
RPMI-8226 = system: RPMI-8226
SR = system: SR
SK-OV-3 = system: SK-OV-3
ACHN = system: ACHN
NCI/ADR-RES = system: NCI/ADR-RES
TK-10 = system: TK-10
U-251 = system: U-251
SF-295 = system: SF-295
NCI-H460 = system: NCI-H460
UACC-62 = system: UACC-62
HCT-116 = system: HCT-116
SF-268 = system: SF-268
RXF 393 = system: RXF 393
HOP-62 = system: HOP-62
SNB-19 = system: SNB-19
MDA-MB-231 = system: MDA-MB-231
786-0 = system: 786-0
BT-549 = system: BT-549
IGROV-1 = system: IGROV-1
CCRF-CEM = system: CCRF-CEM
MCF7 = system: MCF7
SNB-75 = system: SNB-75
CAKI-1 = system: CAKI-1
MDA-MB-435 = system: MDA-MB-435
MOLT-4 = system: MOLT-4
HT-29 = system: HT-29
SF-539 = system: SF-539
HCT-15 = system: HCT-15
NCI-H226 = system: NCI-H226
NCI-H522 = system: NCI-H522
A549 = system: A549
DU-145 = system: DU-145
K562 = system: K562
M14 = system: M14
KM12 = system: KM12
SW-620 = system: SW-620
MDA-N = system: MDA-N

Brc1ccc2[nH]cc([C@H]3CN[C@@H](c4c[nH]c5ccc(Br)cc45)CN3)c2c1
GI50 (HL-60): 1.77 µM (inactive) | GI50 (OVCAR-4): 1.94 µM (inactive) | GI50 (SK-MEL-2): 2.09 µM (inactive) | GI50 (SK-MEL-5): 2.56 µM (inactive) | GI50 (SN12C): 2.91 µM (inactive) | GI50 (LOX IMVI): 1.44 µM (inactive) | GI50 (NCI-H23): 1.6 µM (inactive) | GI50 (COLO 205): 1.73 µM (inactive) | GI50 (HCC 2998): 1.69 µM (inactive) | GI50 (UO-31): 1.91 µM (inactive) | GI50 (OVCAR-5): 2.75 µM (inactive) | GI50 (OVCAR-3): 1.79 µM (inactive) | GI50 (Hs-578T): 4.31 µM (inactive) | GI50 (EKVX): 2.61 µM (inactive) | GI50 (HOP-92): 1.87 µM (inactive) | GI50 (Malme-3M): 2.2 µM (inactive) | GI50 (A498): 2 µM (inactive) | GI50 (UACC-257): 3.64 µM (inactive) | GI50 (T47D): 2.66 µM (inactive) | GI50 (OVCAR-8): 1.79 µM (inactive) | GI50 (PC-3): 1.88 µM (inactive) | GI50 (SK-MEL-28): 8.05 µM (inactive) | GI50 (RPMI-8226): 2.16 µM (inactive) | GI50 (SR): 1.92 µM (inactive) | GI50 (SK-OV-3): 2.49 µM (inactive) | GI50 (ACHN): 1.93 µM (inactive) | GI50 (NCI/ADR-RES): 1.93 µM (inactive) | GI50 (TK-10): 2.26 µM (inactive) | GI50 (U-251): 2.12 µM (inactive) | GI50 (SF-295): 4.97 µM (inactive) | GI50 (NCI-H460): 2.36 µM (inactive) | GI50 (UACC-62): 5.04 µM (inactive) | GI50 (HCT-116): 2.02 µM (inactive) | GI50 (SF-268): 2.65 µM (inactive) | GI50 (RXF 393): 2.65 µM (inactive) | GI50 (HOP-62): 3.37 µM (inactive) | GI50 (SNB-19): 2.83 µM (inactive) | GI50 (MDA-MB-231): 1.62 µM (inactive) | GI50 (786-0): 2.29 µM (inactive) | GI50 (BT-549): > 41.1 µM (inactive) | GI50 (IGROV-1): 1.87 µM (inactive) | GI50 (CCRF-CEM): 2.22 µM (inactive) | GI50 (MCF7): 1.58 µM (inactive) | GI50 (SNB-75): 1.83 µM (inactive) | GI50 (CAKI-1): 1.82 µM (inactive) | GI50 (MDA-MB-435): 1.77 µM (inactive) | GI50 (MOLT-4): 2.11 µM (inactive) | GI50 (HT-29): 1.97 µM (inactive) | GI50 (SF-539): 2 µM (inactive) | GI50 (HCT-15): 2.04 µM | GI50 (NCI-H226): 2.45 µM (inactive) | GI50 (NCI-H522): 1.79 µM (inactive) | GI50 (A549): 2.52 µM (inactive) | GI50 (DU-145): 2.23 µM (inactive) | GI50 (K562): 1.99 µM (inactive) | GI50 (M14): 1.81 µM (inactive) | GI50 (KM12): 1.76 µM (inactive) | GI50 (SW-620): 2.51 µM (inactive)

COc1ccc2nc(N/N=C/c3sccc3C)cc(C)c2c1
GI50 (HL-60): 18.3 µM (inactive) | GI50 (OVCAR-4): 21.4 µM (inactive) | GI50 (SK-MEL-2): 21.6 µM (inactive) | GI50 (SK-MEL-5): 12.9 µM (inactive) | GI50 (SN12C): 19.4 µM (inactive) | GI50 (LOX IMVI): 15.6 µM (inactive) | GI50 (NCI-H23): 10.1 µM (inactive) | GI50 (COLO 205): 13.6 µM (inactive) | GI50 (HCC 2998): 17.5 µM (inactive) | GI50 (UO-31): 15.1 µM (inactive) | GI50 (OVCAR-5): 23.2 µM (inactive) | GI50 (OVCAR-3): 18.8 µM (inactive) | GI50 (Hs-578T): 18.6 µM (inactive) | GI50 (EKVX): 18.2 µM (inactive) | GI50 (HOP-92): 6.07 µM (inactive) | GI50 (Malme-3M): 17.5 µM (inactive) | GI50 (A498): 12.2 µM (inactive) | GI50 (UACC-257): 17 µM (inactive) | GI50 (T47D): 42.9 µM (inactive) | GI50 (OVCAR-8): 37.8 µM (inactive) | GI50 (PC-3): 17.1 µM (inactive) | GI50 (SK-MEL-28): 18.1 µM (inactive) | GI50 (RPMI-8226): 9.38 µM (inactive) | GI50 (MDA-N): 16.5 µM (inactive) | GI50 (SK-OV-3): 13.2 µM (inactive) | GI50 (ACHN): 16.3 µM (inactive) | GI50 (NCI/ADR-RES): 21.6 µM (inactive) | GI50 (TK-10): 12 µM (inactive) | GI50 (U-251): 15.4 µM (inactive) | GI50 (SF-295): 7.23 µM (inactive) | GI50 (NCI-H460): 13.2 µM (inactive) | GI50 (UACC-62): 13.1 µM (inactive) | GI50 (HCT-116): 11.6 µM (inactive) | GI50 (SF-268): 16.5 µM (inactive) | GI50 (RXF 393): 19.1 µM (inactive) | GI50 (HOP-62): 16.4 µM (inactive) | GI50 (SNB-19): 29 µM (inactive) | GI50 (MDA-MB-231): 0.406 µM (active) | GI50 (786-0): 14.4 µM (inactive) | GI50 (BT-549): 15.6 µM (inactive) | GI50 (IGROV-1): 15.1 µM (inactive) | GI50 (CCRF-CEM): 19.5 µM (inactive) | GI50 (MCF7): 22.5 µM (inactive) | GI50 (SNB-75): 15 µM (inactive) | GI50 (CAKI-1): > 100 µM (inactive) | GI50 (MDA-MB-435): 14.1 µM (inactive) | GI50 (MOLT-4): 18.7 µM (inactive) | GI50 (HT-29): 8.67 µM (inactive) | GI50 (HCT-15): 14.1 µM | GI50 (NCI-H226): 18.8 µM (inactive) | GI50 (A549): 20.5 µM (inactive) | GI50 (DU-145): 19.4 µM (inactive) | GI50 (K562): 38 µM (inactive) | GI50 (M14): 11.9 µM (inactive) | GI50 (KM12): 22.5 µM (inactive) | GI50 (SW-620): 20.8 µM (inactive)

CC1C2CC(CC2(C)O)C1(C)C (stereo not drawn)
GI50 (HL-60): > 100 µM (inactive) | GI50 (OVCAR-4): > 100 µM (inactive) | GI50 (SK-MEL-5): > 100 µM (inactive) | GI50 (SN12C): > 100 µM (inactive) | GI50 (NCI-H23): > 100 µM (inactive) | GI50 (COLO 205): > 100 µM (inactive) | GI50 (HCC 2998): > 100 µM (inactive) | GI50 (UO-31): > 100 µM (inactive) | GI50 (OVCAR-5): > 100 µM (inactive) | GI50 (OVCAR-3): > 100 µM (inactive) | GI50 (Hs-578T): > 100 µM (inactive) | GI50 (EKVX): > 100 µM (inactive) | GI50 (HOP-92): > 100 µM (inactive) | GI50 (Malme-3M): > 100 µM (inactive) | GI50 (A498): > 100 µM (inactive) | GI50 (UACC-257): > 100 µM (inactive) | GI50 (T47D): > 100 µM (inactive) | GI50 (OVCAR-8): > 100 µM (inactive) | GI50 (PC-3): > 100 µM (inactive) | GI50 (SK-MEL-28): > 100 µM (inactive) | GI50 (SR): > 100 µM (inactive) | GI50 (MDA-N): > 100 µM (inactive) | GI50 (SK-OV-3): > 100 µM (inactive) | GI50 (ACHN): > 100 µM (inactive) | GI50 (TK-10): > 100 µM (inactive) | GI50 (U-251): > 100 µM (inactive) | GI50 (SF-295): > 100 µM (inactive) | GI50 (NCI-H460): > 100 µM (inactive) | GI50 (UACC-62): > 100 µM (inactive) | GI50 (HCT-116): > 100 µM (inactive) | GI50 (SF-268): > 100 µM (inactive) | GI50 (RXF 393): > 100 µM (inactive) | GI50 (HOP-62): > 100 µM (inactive) | GI50 (SNB-19): > 100 µM (inactive) | GI50 (MDA-MB-231): > 100 µM (inactive) | GI50 (786-0): > 100 µM (inactive) | GI50 (BT-549): > 100 µM (inactive) | GI50 (IGROV-1): > 100 µM (inactive) | GI50 (CCRF-CEM): > 100 µM (inactive) | GI50 (MCF7): > 100 µM (inactive) | GI50 (SNB-75): > 100 µM (inactive) | GI50 (CAKI-1): > 100 µM (inactive) | GI50 (MDA-MB-435): > 10 µM (inactive) | GI50 (MOLT-4): > 100 µM (inactive) | GI50 (HT-29): > 100 µM (inactive) | GI50 (SF-539): > 100 µM (inactive) | GI50 (NCI-H226): > 100 µM (inactive) | GI50 (NCI-H522): > 100 µM (inactive) | GI50 (A549): > 100 µM (inactive) | GI50 (DU-145): > 100 µM (inactive) | GI50 (K562): > 100 µM (inactive) | GI50 (M14): > 100 µM (inactive) | GI50 (KM12): > 100 µM (inactive) | GI50 (SW-620): > 100 µM (inactive)
